Experimental data taken from PMC3445516 (PLoS ONE, 2012).
Values belong to the molecule of their own block, whether it stands above or below them.

Assays:
[1] = design: method as in PMID 14561090; conditions: cited from earlier work
[2] = test system: LPS-stimulated TNFα synthesis; design: method as in PMID 14561090; conditions: acute rat model of LPS-stimulated TNFα synthesis; cited from earlier work
[3] = biological target: T1, p38α (Homo sapiens, UniProt Q16539); conditions: 10 and 100 nM
Method: Phosphorylation of 3.5 µg of p38 substrate was detected in a reaction having 1 µCi [γ-^32P] ATP (Perkin Elmer Life Sciences), 50 µM ATP, 50 ng active recombinant p38 in 50 µL kinase buffer containing 25 mM Tris-HCl, pH 7.5, 10 mM MgCl2, 5 mM β-glycerophosphate, 0.1 mM Na3VO4 and 2 mM DTT. The reaction was incubated at 30°C for 10 minutes and 25 µL of the reaction was spotted on Whatman P81 filter paper. The filter paper was washed 3 times in 0.5% phosphoric acid, air dried and counted using Beckman LS6500 multipurpose scintillation counter. Percent p38 inhibition was graphed using GraphPad Prism software 5.0.

[4] = biological target: T1, p38α; design: method as in PMID 14561090; conditions: read-out: in vitro IC50 for p38α; cited from earlier work
[5] = biological target: T2, KIT(V559D,T670I) (Homo sapiens, UniProt P10721, T670I/V559D); assay: Ambit kinase profiling, competition binding; conditions: compound concentration 10 uM, read-out: Percent Competition
T2 construct: purchased Ambit Biosciences (KINOMEscan)
Description: (§1) Supplement pone.0044653.s004.xls, sheet "Compound 122" | column: Percent Competition

[6] = biological target: T3, LYN (Homo sapiens, UniProt P07948); assay: Ambit kinase profiling, competition binding; conditions: compound concentration 10 uM, read-out: Percent Competition
T3 construct: purchased Ambit Biosciences (KINOMEscan)
T3 sequence (P07948 whole entry): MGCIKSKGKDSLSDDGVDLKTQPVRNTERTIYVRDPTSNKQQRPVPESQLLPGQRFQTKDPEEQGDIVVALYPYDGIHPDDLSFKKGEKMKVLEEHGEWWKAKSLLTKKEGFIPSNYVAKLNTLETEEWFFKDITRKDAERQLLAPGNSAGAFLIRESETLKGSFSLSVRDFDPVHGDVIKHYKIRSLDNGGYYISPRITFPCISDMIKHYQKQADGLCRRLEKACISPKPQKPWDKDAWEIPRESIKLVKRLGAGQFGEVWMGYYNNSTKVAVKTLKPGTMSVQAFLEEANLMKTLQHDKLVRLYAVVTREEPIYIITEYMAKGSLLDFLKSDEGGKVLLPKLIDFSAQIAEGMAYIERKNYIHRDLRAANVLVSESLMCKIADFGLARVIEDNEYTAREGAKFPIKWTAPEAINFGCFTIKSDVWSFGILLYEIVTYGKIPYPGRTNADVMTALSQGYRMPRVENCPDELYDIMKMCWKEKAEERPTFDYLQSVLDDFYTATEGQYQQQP
Description: as §1

[7] = biological target: T4, ABL1(F317I) (Homo sapiens, UniProt P00519, F317I); assay: Ambit kinase profiling, competition binding; conditions: compound concentration 10 uM, read-out: Percent Competition
T4 construct: purchased Ambit Biosciences (KINOMEscan)
Description: as §1

[8] = biological target: T5, TNK2 (Homo sapiens, UniProt Q07912); assay: Ambit kinase profiling, competition binding; conditions: compound concentration 10 uM, read-out: Percent Competition
T5 construct: purchased Ambit Biosciences (KINOMEscan)
T5 sequence (Q07912 whole entry): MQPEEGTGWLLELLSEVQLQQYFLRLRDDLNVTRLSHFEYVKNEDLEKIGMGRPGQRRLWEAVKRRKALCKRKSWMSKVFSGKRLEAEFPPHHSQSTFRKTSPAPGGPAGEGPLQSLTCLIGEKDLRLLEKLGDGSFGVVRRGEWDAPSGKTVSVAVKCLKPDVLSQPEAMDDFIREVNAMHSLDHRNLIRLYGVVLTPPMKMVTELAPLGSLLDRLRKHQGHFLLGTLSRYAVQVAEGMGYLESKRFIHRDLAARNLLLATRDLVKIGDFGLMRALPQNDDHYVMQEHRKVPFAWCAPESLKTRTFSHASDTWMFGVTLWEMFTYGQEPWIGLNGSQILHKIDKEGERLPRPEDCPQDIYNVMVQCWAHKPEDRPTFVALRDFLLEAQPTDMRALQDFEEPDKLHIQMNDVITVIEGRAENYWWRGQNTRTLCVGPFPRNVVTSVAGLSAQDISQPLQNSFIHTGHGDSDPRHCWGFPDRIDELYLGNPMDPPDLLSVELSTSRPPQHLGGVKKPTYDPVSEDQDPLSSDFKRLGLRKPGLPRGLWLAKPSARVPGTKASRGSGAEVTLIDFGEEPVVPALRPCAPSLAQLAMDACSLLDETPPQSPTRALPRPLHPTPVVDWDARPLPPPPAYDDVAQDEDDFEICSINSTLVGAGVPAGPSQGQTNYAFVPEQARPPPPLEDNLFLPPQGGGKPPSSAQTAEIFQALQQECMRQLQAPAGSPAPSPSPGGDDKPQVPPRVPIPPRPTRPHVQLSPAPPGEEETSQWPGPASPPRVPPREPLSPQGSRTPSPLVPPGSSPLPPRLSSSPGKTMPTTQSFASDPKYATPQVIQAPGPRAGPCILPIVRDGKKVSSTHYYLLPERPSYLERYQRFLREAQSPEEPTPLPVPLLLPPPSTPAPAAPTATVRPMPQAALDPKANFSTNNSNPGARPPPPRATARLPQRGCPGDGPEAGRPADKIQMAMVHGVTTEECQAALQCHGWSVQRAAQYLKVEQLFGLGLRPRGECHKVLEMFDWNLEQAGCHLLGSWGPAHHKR
Description: as §1

[9] = biological target: T6, AURKA (Homo sapiens, UniProt O14965); assay: Ambit kinase profiling, competition binding; conditions: compound concentration 10 uM, read-out: Percent Competition
T6 construct: purchased Ambit Biosciences (KINOMEscan)
T6 sequence (O14965 whole entry): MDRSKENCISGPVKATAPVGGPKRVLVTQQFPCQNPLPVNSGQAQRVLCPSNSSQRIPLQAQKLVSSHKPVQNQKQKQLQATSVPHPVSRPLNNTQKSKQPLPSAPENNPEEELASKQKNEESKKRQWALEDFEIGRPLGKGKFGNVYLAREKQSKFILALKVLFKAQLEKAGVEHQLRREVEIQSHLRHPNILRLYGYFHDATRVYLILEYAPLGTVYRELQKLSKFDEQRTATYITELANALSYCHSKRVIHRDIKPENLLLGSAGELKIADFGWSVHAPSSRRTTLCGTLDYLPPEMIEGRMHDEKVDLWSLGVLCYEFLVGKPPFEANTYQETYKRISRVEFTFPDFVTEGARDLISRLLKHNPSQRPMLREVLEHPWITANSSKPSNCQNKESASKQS
Description: as §1

[10] = biological target: T7, TIE2 (Homo sapiens, UniProt Q02763); assay: Ambit kinase profiling, competition binding; conditions: compound concentration 10 uM, read-out: Percent Competition
T7 construct: purchased Ambit Biosciences (KINOMEscan)
Description: as §1

[11] = biological target: T8, CDK8 (Homo sapiens, UniProt P49336); assay: Ambit kinase profiling, competition binding; conditions: compound concentration 10 uM
T8 construct: purchased Ambit Biosciences (KINOMEscan)
T8 sequence (P49336 whole entry): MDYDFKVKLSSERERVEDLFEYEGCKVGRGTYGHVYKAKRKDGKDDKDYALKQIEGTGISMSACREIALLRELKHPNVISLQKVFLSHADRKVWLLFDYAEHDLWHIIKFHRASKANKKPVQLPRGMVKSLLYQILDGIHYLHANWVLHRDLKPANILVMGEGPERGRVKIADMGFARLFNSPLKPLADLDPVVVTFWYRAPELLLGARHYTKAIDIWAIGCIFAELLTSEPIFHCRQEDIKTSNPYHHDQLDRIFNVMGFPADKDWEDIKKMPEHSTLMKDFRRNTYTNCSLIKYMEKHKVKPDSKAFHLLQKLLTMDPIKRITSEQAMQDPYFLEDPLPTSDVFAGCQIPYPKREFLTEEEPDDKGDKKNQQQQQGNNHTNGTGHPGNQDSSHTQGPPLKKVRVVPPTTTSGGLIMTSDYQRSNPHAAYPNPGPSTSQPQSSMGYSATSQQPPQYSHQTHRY
Description: as §1

[12] = biological target: T9, TRKA (Homo sapiens, UniProt P04629); assay: Ambit kinase profiling, competition binding; conditions: compound concentration 10 uM, read-out: Percent Competition
T9 construct: purchased Ambit Biosciences (KINOMEscan)
Description: as §1

[13] = biological target: T10, JAK3(JH1domain-catalytic) (Homo sapiens, UniProt P52333); assay: Ambit kinase profiling, competition binding; conditions: compound concentration 10 uM, read-out: Percent Competition
T10 construct: JAK3(JH1domain-catalytic); purchased Ambit Biosciences (KINOMEscan)
Description: as §1

[14] = biological target: T11, WEE1 (Homo sapiens, UniProt P30291); assay: Ambit kinase profiling, competition binding; conditions: compound concentration 10 uM, read-out: Percent Competition
T11 construct: purchased Ambit Biosciences (KINOMEscan)
Description: as §1

[15] = biological target: T12, FLT4 (Homo sapiens, UniProt P35916); assay: Ambit kinase profiling, competition binding; conditions: compound concentration 10 uM, read-out: Percent Competition
T12 construct: purchased Ambit Biosciences (KINOMEscan)
Description: as §1

[16] = biological target: T13, CDKL2 (Homo sapiens, UniProt Q92772); assay: Ambit kinase profiling, competition binding; conditions: compound concentration 10 uM, read-out: Percent Competition
T13 construct: purchased Ambit Biosciences (KINOMEscan)
Description: as §1

[17] = biological target: T14, MAP3K3 (Homo sapiens, UniProt Q99759); assay: Ambit kinase profiling, competition binding; conditions: compound concentration 10 uM, read-out: Percent Competition
T14 construct: purchased Ambit Biosciences (KINOMEscan)
Description: as §1

[18] = biological target: T15, ABL1(M351T) (Homo sapiens, UniProt P00519, M351T); assay: Ambit kinase profiling, competition binding; conditions: compound concentration 10 uM, read-out: Percent Competition
T15 construct: purchased Ambit Biosciences (KINOMEscan)
Description: as §1

[19] = biological target: T16, EPHB1 (Homo sapiens, UniProt P54762); assay: Ambit kinase profiling, competition binding; conditions: compound concentration 10 uM, read-out: Percent Competition
T16 construct: purchased Ambit Biosciences (KINOMEscan)
T16 sequence (P54762 18-984): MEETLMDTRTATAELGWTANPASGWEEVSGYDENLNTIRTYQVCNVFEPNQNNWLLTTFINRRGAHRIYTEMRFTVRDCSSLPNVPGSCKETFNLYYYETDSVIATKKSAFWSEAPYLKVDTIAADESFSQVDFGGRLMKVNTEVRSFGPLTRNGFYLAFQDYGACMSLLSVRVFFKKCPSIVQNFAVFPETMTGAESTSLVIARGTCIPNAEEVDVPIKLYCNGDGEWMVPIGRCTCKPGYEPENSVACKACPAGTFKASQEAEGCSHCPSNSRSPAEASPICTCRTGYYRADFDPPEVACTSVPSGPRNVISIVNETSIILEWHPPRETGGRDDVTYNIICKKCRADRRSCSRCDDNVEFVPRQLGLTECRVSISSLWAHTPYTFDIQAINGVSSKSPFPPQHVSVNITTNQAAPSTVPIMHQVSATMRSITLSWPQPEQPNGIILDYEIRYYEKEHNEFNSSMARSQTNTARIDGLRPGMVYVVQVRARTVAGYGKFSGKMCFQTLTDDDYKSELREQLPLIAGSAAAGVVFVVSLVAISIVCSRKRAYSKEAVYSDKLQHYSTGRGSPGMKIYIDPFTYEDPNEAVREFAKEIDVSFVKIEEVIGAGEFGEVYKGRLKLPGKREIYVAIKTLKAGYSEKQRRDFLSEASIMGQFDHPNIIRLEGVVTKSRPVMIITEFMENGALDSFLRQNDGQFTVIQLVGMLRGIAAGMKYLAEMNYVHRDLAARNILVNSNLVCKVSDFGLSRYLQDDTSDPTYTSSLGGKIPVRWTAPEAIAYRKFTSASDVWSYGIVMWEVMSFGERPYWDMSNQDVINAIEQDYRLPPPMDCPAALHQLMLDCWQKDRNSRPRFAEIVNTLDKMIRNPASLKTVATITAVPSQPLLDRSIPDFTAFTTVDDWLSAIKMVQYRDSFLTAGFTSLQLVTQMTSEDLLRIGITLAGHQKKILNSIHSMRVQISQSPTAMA
Description: as §1

[20] = biological target: T17, PKMYT1 (Homo sapiens, UniProt Q99640); assay: Ambit kinase profiling, competition binding; conditions: compound concentration 10 uM
T17 construct: purchased Ambit Biosciences (KINOMEscan)
T17 sequence (Q99640 whole entry): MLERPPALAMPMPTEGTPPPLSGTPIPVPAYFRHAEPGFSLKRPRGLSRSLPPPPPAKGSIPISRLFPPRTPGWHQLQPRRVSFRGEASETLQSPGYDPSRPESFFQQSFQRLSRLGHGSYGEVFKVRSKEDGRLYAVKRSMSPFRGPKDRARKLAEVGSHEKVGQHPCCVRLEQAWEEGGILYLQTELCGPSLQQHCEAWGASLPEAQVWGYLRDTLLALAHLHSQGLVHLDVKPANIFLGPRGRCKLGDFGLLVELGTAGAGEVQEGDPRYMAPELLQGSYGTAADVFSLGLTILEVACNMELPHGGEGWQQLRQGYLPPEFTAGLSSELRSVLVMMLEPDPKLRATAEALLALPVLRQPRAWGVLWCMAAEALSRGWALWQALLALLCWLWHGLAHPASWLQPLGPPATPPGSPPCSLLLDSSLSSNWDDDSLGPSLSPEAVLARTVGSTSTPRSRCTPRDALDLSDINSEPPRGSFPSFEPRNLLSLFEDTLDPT
Description: as §1

[21] = biological target: T18, FGFR2 (Homo sapiens, UniProt P21802); assay: Ambit kinase profiling, competition binding; conditions: compound concentration 10 uM, read-out: Percent Competition
T18 construct: purchased Ambit Biosciences (KINOMEscan)
T18 sequence (P21802 22-821): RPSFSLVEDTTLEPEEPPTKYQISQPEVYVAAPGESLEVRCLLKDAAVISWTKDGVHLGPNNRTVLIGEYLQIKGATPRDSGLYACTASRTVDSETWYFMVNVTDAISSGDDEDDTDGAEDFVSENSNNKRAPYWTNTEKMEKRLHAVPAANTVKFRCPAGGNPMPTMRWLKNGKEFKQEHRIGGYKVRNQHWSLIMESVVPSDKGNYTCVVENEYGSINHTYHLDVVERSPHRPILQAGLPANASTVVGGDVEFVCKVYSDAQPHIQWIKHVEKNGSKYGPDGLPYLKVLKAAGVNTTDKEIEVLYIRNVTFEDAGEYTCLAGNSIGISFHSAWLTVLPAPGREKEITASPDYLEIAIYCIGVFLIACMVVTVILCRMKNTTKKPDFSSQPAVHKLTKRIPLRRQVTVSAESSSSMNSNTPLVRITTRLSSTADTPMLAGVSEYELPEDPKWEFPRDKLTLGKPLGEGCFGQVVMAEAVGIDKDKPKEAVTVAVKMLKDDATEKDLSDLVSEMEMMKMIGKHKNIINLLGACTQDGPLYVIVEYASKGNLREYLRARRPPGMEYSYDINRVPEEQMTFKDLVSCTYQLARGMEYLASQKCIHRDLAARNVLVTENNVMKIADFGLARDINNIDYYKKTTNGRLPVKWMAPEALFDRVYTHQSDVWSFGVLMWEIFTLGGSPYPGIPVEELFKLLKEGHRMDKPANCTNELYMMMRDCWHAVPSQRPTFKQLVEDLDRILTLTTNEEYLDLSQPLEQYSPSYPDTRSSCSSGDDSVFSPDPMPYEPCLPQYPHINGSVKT
Description: as §1

[22] = test system: FLT3(ITD); assay: Ambit kinase profiling, competition binding; design: species or system human; conditions: compound concentration 10 uM
Description: as §1

T1 sequence (Q16539 whole entry): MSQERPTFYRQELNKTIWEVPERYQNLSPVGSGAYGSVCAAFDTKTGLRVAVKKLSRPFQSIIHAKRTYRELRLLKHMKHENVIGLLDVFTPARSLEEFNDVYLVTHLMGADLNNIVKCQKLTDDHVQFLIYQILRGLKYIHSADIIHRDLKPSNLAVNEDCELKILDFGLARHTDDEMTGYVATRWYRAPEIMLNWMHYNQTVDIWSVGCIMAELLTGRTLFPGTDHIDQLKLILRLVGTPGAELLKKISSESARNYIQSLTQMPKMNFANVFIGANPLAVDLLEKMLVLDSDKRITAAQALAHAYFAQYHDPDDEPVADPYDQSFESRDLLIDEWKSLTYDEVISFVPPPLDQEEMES

Structure (SMILES): CC(O)CNc1cc(-c2[nH]c3cccnc3c2-c2ccc(F)cc2)ccn1 (stereo not shown) [Compound 140]
pharmacokinetic (PK) parameters [1]: favorable pharmacokinetic (PK) parameters
in vivo efficacy [2]: in vivo efficacy has been demonstrated
inhibition of p38α [3]: most potent
IC50 [4]: 1 nM

inhibition at 10 µM [5]: < 50%
inhibition at 10 µM [6]: < 50%
inhibition at 10 µM [7]: < 50%
inhibition at 10 µM [8]: < 50%
inhibition at 10 µM [9]: < 50%
inhibition at 10 µM [10]: < 50%
Percent Competition [11]: <50%
inhibition at 10 µM [12]: < 50%
inhibition at 10 µM [13]: < 50%
inhibition at 10 µM [14]: < 50%
inhibition at 10 µM [15]: < 50%
inhibition at 10 µM [16]: < 50%
inhibition at 10 µM [17]: < 50%
inhibition at 10 µM [18]: < 50%
inhibition at 10 µM [19]: < 50%
Percent Competition [20]: <50%
inhibition at 10 µM [21]: < 50%
Percent Competition [22]: <50%
Structure (SMILES): Fc1ccc(-c2c(-c3ccncc3)[nH]c3nccnc23)cc1 [RO1155697-000-005]
